Target: T1, S1PR1 (Homo sapiens, UniProt P21453)
T1 construct: expressed in transfected cells
Experiment: In vitro agonist activity on S1PR1 (PathHunter cell line, chemiluminescence)
Type: cell-based
Procedure: Test example 1: Evaluating the in vitro agonist activity of the compound of the present disclosure on S1PR1
Experimental purpose: To assess the agonist activity of the compound on S1PR1
I. Cell Treatment • 1. The PathHunter cell line was thawed according to standard procedures. • 2. The cells were seeded in a 384-well plate with a volume of 20 μL, and incubated at 37° C. for an appropriate duration.
II. Agonist • 1. For the agonist evaluation, the cells were co-cultured with the test samples to induce a reaction. • 2. The test stock solution was diluted 5-fold using the buffer. • 3. 5 μL of the 5-fold diluted solution was added to the cells, and incubated at 37° C. for 90 to 180 minutes. The vehicle concentration was maintained at 1%.
III. Signal Detection • 1. Either 12.5 μL or 15 μL of the PathHunter detection reagent (at a 50% v/v ratio) was added each time, followed by a 1-hour incubation at room temperature to allow for detection signal generation. • 2. Chemiluminescence signal detection was conducted using a PerkinElmer Envision™ microplate reader.
IV. Data Analysis • 1. The activity of the compound was analyzed using the CBIS suite for data analysis (ChemInnovation, CA). • 2. Formula for calculation:
% Activity=100%× (Average sample RLU—Average vehicle RLU)/(Average maximum control ligand RLU—Average vehicle RLU)

T1 sequence (P21453 whole entry): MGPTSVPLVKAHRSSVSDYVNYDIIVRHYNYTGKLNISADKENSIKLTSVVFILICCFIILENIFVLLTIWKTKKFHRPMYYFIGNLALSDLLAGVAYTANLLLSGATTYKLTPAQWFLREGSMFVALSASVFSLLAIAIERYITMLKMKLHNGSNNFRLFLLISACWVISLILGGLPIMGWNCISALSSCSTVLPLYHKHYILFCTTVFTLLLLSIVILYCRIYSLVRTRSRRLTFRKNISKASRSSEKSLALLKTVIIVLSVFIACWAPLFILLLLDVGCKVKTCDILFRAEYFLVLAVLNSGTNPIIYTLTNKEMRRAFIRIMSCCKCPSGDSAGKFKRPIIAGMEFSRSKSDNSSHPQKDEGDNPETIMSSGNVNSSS

CC(C)Oc1cc(-c2nc(-c3cccc4c3CCC43CCN(C(C)(C)CO)C3)no2)ccc1C#N (centres unmarked) [Compound 1]
Emax (% Activity relative to maximum control ligand): 110%
EC50 (incubated at 37° C. for 90 to 180 minutes): 0.657 nM

From patent publication US20240182457A1, “OXADIAZOLE-SUBSTITUTED SPIROCYCLIC COMPOUND AND APPLICATION THEREOF” (HELIOEAST PHARMACEUTICAL CO., LTD., priority 2021, published 2024)
